Laboratory results: patent US20060252825A1, “Crystal forms of {[(2r)-7-(2,6-dichlorophenyl)-5-fluoro-2,3-dihydro-1-benzofuran-2-yl]methyl}amine hydrochloride” (Wyeth, priority 2005, published 2006)
“And” between values parts separate entries of the source, which are not always exact repeats. Identical values can stand only once. Counter-ions that a name gives are not always drawn.

Experiments:
Format in all cases: physicochemical
[1] = Assessment of stability in water (slurry at 25° C., form identified by XRPD); conditions: slurried in water at 25° C.; for Form after 2 days / Form after 4 days: Table A; for Form after 2 days / Form after 4 days / Stability in water (overall summary): hydrochloride; for Stability in water (overall summary): summary of Tables A-D
Experimental: Form I, Form II or a mixture thereof was slurried in water at 25° C. to assess stability. […] XRPD was used to identify crystalline form.

[2] = Solubility in water, gravimetric method
Experimental: Solubility was measured using the gravimetric method by separately suspending Form I and Form II in water with stirring at room temperature for 6 hours.

[3] = Conversion of Form I to Form II by slurrying in water at 25° C. (XRPD); conditions: slurried in water at 25° C. with stirring
Experimental: Form I was slurried in water for 1 day and for 5 days at 25° C. with stirring.

[4] = Conversion of Form II to Form I by slurrying in t-butylmethyl ether (XRPD); conditions: slurried in t-butylmethyl ether for 4 days at room temperature
From the text: Form II was slurried in t-butylmethyl ether for 4 days at room temperature. The resulting solid was characterized by XRPD as Form I.

Form after 2 days ([1]; XRPD) | Form after 4 days ([1]; XRPD) | Form after 3 days ([1]; Table C, XRPD) | solubility at 6 h ([2]; water, thermodynamic from solid, suspended in water with stirring at room temperature for 6 hours, gravimetric) [mg/mL] | Crystalline form after 5 days ([3]; 5 days) | Resulting solid form [4] | Solubility-Water ([2]; suspended in water with stirring at room temperature for 6 hours, gravimetric, hydrochloride) | SMILES | Stability in water (overall summary) [1] | Crystalline form after 1 day ([3]; 1 day) | Relative thermodynamic stability based on solubility data ([2]; inferred from water solubility of Forms I and II, hydrochloride)
trace I |  |  |  |  |  |  | NC[C@H]1Cc2cc(F)cc(-c3c(Cl)cccc3Cl)c2O1 [50:50 I:II, {[(2R)-7-(2,6-dichlorophenyl)-5-fluoro-2,3-dihydro-1-benzofuran-2-yl]methyl}amine hydrochloride] |  |  | 
I, trace II | Increased amount of II | mainly II, some I | 67 | no detectable amount of Form I |  |  | NC[C@H]1Cc2cc(F)cc(-c3c(Cl)cccc3Cl)c2O1 [Form I, {[(2R)-7-(2,6-dichlorophenyl)-5-fluoro-2,3-dihydro-1-benzofuran-2-yl]methyl}amine hydrochloride] | converted to Form II under most of the conditions tested | substantial conversion of the solid from Form I to Form II | 
 |  |  |  |  | Form I | 51 mg/mL and 50 mg/mL | NC[C@H]1Cc2cc(F)cc(-c3c(Cl)cccc3Cl)c2O1 [Form II, {[(2R)-7-(2,6-dichlorophenyl)-5-fluoro-2,3-dihydro-1-benzofuran-2-yl]methyl}amine hydrochloride] | stable in water |  | thermodynamically more stable in water than Form I
increased amount of II | increased amount of II |  |  |  |  |  | NC[C@H]1Cc2cc(F)cc(-c3c(Cl)cccc3Cl)c2O1 [I seeded with II, {[(2R)-7-(2,6-dichlorophenyl)-5-fluoro-2,3-dihydro-1-benzofuran-2-yl]methyl}amine hydrochloride] |  |  | 
